“And” between values parts separate entries of the source, which are not always exact repeats. Identical values can stand only once.
Experiment: Pilot clinical trial of Lipitor-Liprimar: serum lipids in human volunteers
Assay type: in vivo
Parameters: TG / CH-HDL / CH, mean / TG, mean / CH-LDL, mean / CH-HDL, mean: unit not given here
Experimental: Ten volunteers, 5 males and 5 females, aged 45-55 years old, were selected for this pilot clinical trial. 40 mg of Lipitor-Liprimar was given orally, with food, to each patient daily for two months.
Serum samples were collected from the blood of the patients before the treatment and after two months of treatment.

[1] = Lipitor 40 mg daily, two months
[2] = individual patients, Lipitor 40 mg daily, orally, after 2 months of treatment
[3] = mean of 10 patients, Lipitor 40 mg daily, orally, after 2 months of treatment

Q: Which results are given for `CC(C)c1c(C(=O)Nc2ccccc2)c(-c2ccccc2)c(-c2ccc(F)cc2)n1CC[C@@H](O)C[C@@H](O)CC(=O)O` [Lipitor, Atorvastatin]?
A: total cholesterol (CH) reduction [1]: 17%; triglyceride (TG) reduction [1]: 22%; CH-LDL reduction (Lipitor-Liprimar 40 mg daily, two months): 35%; CH [2]: 200 mg/dL (2×) and 140 mg/dL and 176 mg/dL and 188 mg/dL and 197 mg/dL and 170 mg/dL and 184 mg/dL and 209 mg/dL and 154 mg/dL; CH-HDL [2]: 38 and 42 (3×) and 47 (2×) and 39 and 43 (2×) and 49; CH-LDL [2]: 120 mg/dL (2×) and 145 mg/dL and 110 mg/dL (2×) and 146 mg/dL and 140 mg/dL and 100 mg/dL and 130 mg/dL (2×); TG [2]: 120 and 136 and 99 and 98 and 87 and 90 and 133 and 105 and 172 and 96; CH, mean [3]: 182; CH-HDL, mean [3]: 43; CH-LDL, mean [3]: 100; TG, mean [3]: 113
